Data on two compounds can be found in US20170119034A1, “COMPOSITIONS AND METHODS FOR MODIFYING PERCEPTION OF SWEET TASTE” (University of Florida Research Foundation, Inc., priority 2012, published 2017).

Assay [1] has as its system perceived sweetness of tomato fruit (consumer panel). Kind of assay: Tomato consumer taste panel: perceived sweetness (gLMS) regressed on fruit chemical content. Format: in vivo, human. The conditions noted are these: tomato; for correlation with sweetness: direction of correlation; for contribution to perceived sweetness: multiple regression analysis using the volatiles; for association with sweetness: univariate models. Here is the method:
(§1) Sensory analysis. Fully ripe fruit were harvested, and used for taste panels. A random subset of fruit was used for biochemical analysis. Three biological replicates, each consisting of 2-20 fruit (depending on fruit size), were assayed for each variety. […] Panelists were between the ages of 18 and 78 with a median age of 22. […] An average of 85 (range of 66-95) of these panelists evaluated between 4-6 varieties in a session. All panelists went through a training session to familiarize them with the scaling and procedures. Tomatoes were sliced into wedges (or in halves for grape/cherry types) and each panelist was given two pieces for evaluation. Panelists took a bite of each sample, chewed and swallowed it, and rated overall liking and liking for texture. They then rated the perceived intensities of sweetness, sourness, saltiness, umami sensation, bitterness and overall tomato flavor. They were free to take as many bites as necessary to complete the assessments. They were instructed to take a bite of an unsalted cracker and a sip of water between samples. Samples were presented to the panelists in a randomized order. Hedonic ratings used the hedonic gLMS. This scale assesses the liking for tomatoes in the context of all pleasure/displeasure experiences: 0=neutral, −100=strongest disliking of any kind experienced, and +100=strongest liking of any kind experienced. Sensory intensity ratings used the gLMS (7, 8, 19).This scale assesses taste and flavor sensations in the context of all sensory experience (7): 0=no sensation, 100=strongest sensation of any kind experienced. Both scales were devised to provide valid comparisons across subjects.
(§2) Statistical analysis. The 68 chemical compounds measured in this experiment were divided into six groups based upon biochemical properties: sugars, branched chain amino acids, lipids, carotenoids, phenolics, and acids. A small number of compounds for which biosynthetic pathways are not established were assigned to one of the six classes based upon their correlations with other classified compounds. All pairwise correlations among the set of 68 compounds were calculated. Correlation coefficients were sorted using Modulated Modularity Clustering (MMC) (9) as a visual aid for identifying compounds that are closely related in this sample (FIG. 1; Table 4). Biochemical groups were examined for compounds within the group that were highly correlated and compounds that were upstream in the relevant metabolic pathways were preferentially selected.
(§3) All analyses were performed in SAS v 9.2.
In conducting the multiple regression analysis on the tomato data set, the independent variables were the sugar content (glucose+fructose), and the flavor (indicated by the retronasal perception of volatiles), while the dependent variable was the perceived sweetness.

The subject of assay [2] is tomato flavor intensity (consumer panel). Put plainly: Tomato consumer taste panel: overall tomato flavor intensity (gLMS) versus fruit chemical content. Format: in vivo, human. Particulars: for association with flavor intensity: univariate models. Here is the method:
as §1, §2, §3

The test system of assay [3] is perceived sourness of tomato fruit (consumer panel). Put plainly: Tomato consumer taste panel: sourness intensity versus fruit chemical content. Particulars: volatile-induced sourness independent of citric acid. Format: in vivo, human. Here is the method: Sensory analysis. Fully ripe fruit were harvested, and used for taste panels. A random subset of fruit was used for biochemical analysis. Three biological replicates, each consisting of 2-20 fruit (depending on fruit size), were assayed for each variety. A group of 170 tomato consumers (64 male, 106 female) were recruited to evaluate all the varieties. Panelists were between the ages of 18 and 78 with a median age of 22. Panelists self-classified themselves as 101 White/Caucasian, 14 Black/African-American, 32 Asian/Pacific and […]. An average of 85 (range of 66-95) of these panelists evaluated between 4-6 varieties in a session. All panelists went through a training session to familiarize them with the scaling and procedures. Tomatoes were sliced into wedges (or in halves for grape/cherry types) and each panelist was given two pieces for evaluation. Panelists took a bite of each sample, chewed and swallowed it, and rated overall liking and liking for texture. They then rated the perceived intensities of sweetness, sourness, saltiness, umami sensation, bitterness and overall tomato flavor. They were free to take as many bites as necessary to complete the assessments. They were instructed to take a bite of an unsalted cracker and a sip of water between samples. Samples were presented to the panelists in a randomized order. Hedonic ratings used the hedonic gLMS. […]

The subject of assay [4] is perceived sweetness of tomato fruit (consumer panel). Particulars: analysis of a volatile subset (Tieman 2012); cited from earlier work.

For the compound `CCC(C)C=O` (centres unmarked) [2-methylbutanal], in assay [1], the “association with sweetness after accounting for fructose” value is reported as “independent predictors of sweetness after accounting for fructose”, the correlation with sweetness entry is listed as “negatively correlated with sweetness”, the “contribution to perceived sweetness” value was “inhibitory effect” and the association with sweetness entry is given as “showed evidence for association with sweetness in univariate models”. Moreover, the “association with flavor intensity after accounting for fructose” value in assay [2] (after accounting for fructose) is given as “independently significant after accounting for fructose”. Besides, the “association with flavor intensity” value in assay [2] is reported as “associated with flavor intensity in univariate models”. The contribution to sourness entry in assay [3] is on record as “contributed to this sourness”. The “enhancing sweetness intensity independent of fructose” value in assay [4] is “enhancing sweetness intensity independent of fructose”.
Turning to `CC(C)=CCC/C(C)=C/C=O` [geranial], in assay [1], the “association with sweetness after accounting for fructose” value was “independent predictors of sweetness after accounting for fructose”, the correlation with sweetness result was “positively correlated with sweetness”, the “contribution to perceived sweetness” value is “positive contributor to perceived sweetness” and the association with sweetness entry is listed as “showed evidence for association with sweetness in univariate models”. The “association with flavor intensity” value in assay [2] is recorded as “associated with flavor intensity in univariate models”. The “enhancing sweetness intensity independent of fructose” value in assay [4] is “enhancing sweetness intensity independent of fructose”.
